Test results taken from PMC7745420 (ACS Omega, 2020).

Target: p97/VCP (Homo sapiens, UniProt P55072)
Experiment: ATPase assay on purified human p97/VCP
Format: biochemical

p97/VCP, sequence (P55072 2-806): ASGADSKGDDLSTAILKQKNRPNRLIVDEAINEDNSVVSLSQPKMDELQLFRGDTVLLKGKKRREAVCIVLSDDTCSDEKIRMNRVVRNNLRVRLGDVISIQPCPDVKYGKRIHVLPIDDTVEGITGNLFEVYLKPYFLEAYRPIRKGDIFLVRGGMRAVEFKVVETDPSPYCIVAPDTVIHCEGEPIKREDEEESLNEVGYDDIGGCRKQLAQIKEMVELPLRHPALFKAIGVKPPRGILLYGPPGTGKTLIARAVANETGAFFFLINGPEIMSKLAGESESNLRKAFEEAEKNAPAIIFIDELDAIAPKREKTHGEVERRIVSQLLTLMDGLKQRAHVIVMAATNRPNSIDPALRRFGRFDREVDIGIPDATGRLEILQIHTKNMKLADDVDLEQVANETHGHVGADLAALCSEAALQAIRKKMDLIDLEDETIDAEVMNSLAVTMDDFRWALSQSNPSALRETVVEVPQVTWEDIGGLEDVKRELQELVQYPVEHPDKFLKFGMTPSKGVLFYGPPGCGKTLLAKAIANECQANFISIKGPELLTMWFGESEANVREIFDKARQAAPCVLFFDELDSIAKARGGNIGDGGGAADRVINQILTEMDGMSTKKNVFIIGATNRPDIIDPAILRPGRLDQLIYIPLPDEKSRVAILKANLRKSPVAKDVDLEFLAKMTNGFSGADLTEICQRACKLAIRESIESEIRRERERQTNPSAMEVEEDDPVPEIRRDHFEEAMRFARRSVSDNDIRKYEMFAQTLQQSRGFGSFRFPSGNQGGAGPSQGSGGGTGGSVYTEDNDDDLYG

Compound NCCc1cn(-c2nc(NCc3ccccc3)c3ccccc3n2)c2ccccc12 [FQ393, 2-[3-(2-Aminoethyl)-1H-indol-1-yl]-N-benzylquinazolin-4-amine] has an IC50 of 900 ± 110 nM.
